Test system: A-431
Experiment: Cytotoxicity against human A431 cells after 72 hrs by SRB method
Format: functional, cell-based
Conditions: A-431, 72 h

For `CC(=O)O[C@H]1C(=O)[C@@]2(C)[C@H]([C@H](OC(=O)c3ccccc3)[C@]3(O)C[C@H](OC(=O)[C@H](O)[C@@H](NC(=O)c4ccccc4)c4ccccc4)C(C)=C1C3(C)C)[C@]1(OC(C)=O)CO[C@@H]1C[C@@H]2O` [PACLITAXEL], the IC50 was 25.1 nM.

From ChEMBL document CHEMBL1152184, “A micellar prodrug of paclitaxel conjugated to cyclotriphosphazene” (Bioorg Med Chem Lett, 2008)
